In patent US20140243227A1, “CULTURE MEDIA FOR STEM CELLS” (Koninklijke Nederlandse Akademie van Wetenschappen, priority 2011, published 2014):
Where two headings read alike, the source gives them in different places.

Experiments:
human colon crypts = assay: Screening of reagents for optimization of human intestinal organoids culture (plating efficiency); assay type: cell-based
[1] = system: human intestinal organoids; assay: Differentiation and proliferation of human intestinal organoids; assay type: cell-based; settings: human organoids after withdrawal of Wnt
human colon organoids = assay: Long-term culture of human colon organoids (culture period, passages); assay type: cell-based; settings: nicotinamide 10 mM, WENR + gastrin
liver organoids = assay: Liver organoid expansion with PGE2 or arachidonic acid; assay type: cell-based, human; settings: for Number and size of liver organoids versus basal medium alone: PGE2 50 nM or AA 10 ug/ml
[2] = system: colon and liver organoids; assay: GSK3 inhibitor as Wnt replacement in organoid culture media; assay type: cell-based; settings: replacement for Wnt
[3] = Second screening (WENR + gastrin + Nicotinamide)

Compound | Activity (plating efficiency compared with control after 4 days culture) (human colon crypts; First screening (WENR)) | Activity (plating efficiency compared with control after 4 days culture) (human colon crypts; [3]) | also measured
FGF2: growth factor (Peprotech) | 0 |  | 
Cc1ccc(C(=O)Cn2c3c(sc2=N)CCCC3)cc1 [Pifithrin-α] |  | 0 | 
NC(=O)c1cccnc1 [Nicotinamide] | 3+ (3+ = >100% increase) |  | Goblet and enteroendocrine cell differentiation [1]: strongly inhibited this differentiation; Prolongation of culture period (human colon organoids): essential for prolongation of culture period beyond the initial 7 days
C[C@]12CCC(=O)C=C1CC[C@@H]1[C@@H]2[C@@H](O)C[C@@]2(C)[C@H]1CC[C@]2(O)C(=O)CO [Hydrocortison] | 0 |  | 
Cc1nc2sccn2c(=O)c1CCN1CCC(=C(c2ccccc2)c2ccc(F)cc2)CC1 [R 59022] |  |  | Result: CYP3AII (liver organoid cultures): +
COc1cc2nc(N3CCCN(C)CC3)nc(NC3CCN(Cc4ccccc4)CC3)c2cc1OC [BIX01294] |  | 1− (1− = 0-50%) | 
CC(/C=C/C(=O)NO)=C\[C@@H](C)C(=O)c1ccc(N(C)C)cc1 [TSA] |  |  | Result: CYP3AII (liver organoid cultures): −
c1cc(-c2cnn3cc(-c4ccc(OCCN5CCCCC5)cc4)cnc23)ccn1 [Dorsomorphin] |  | 0 | 
Cholera Toxin |  |  | Activity (plating efficiency compared with control after 4 days culture) (human colon crypts): 1+ (key: 0 = no change; 1+ = <50% increase; 2+ = 50-100% increase; 3+ = >100% increase; 1− = 0-50%; 2− = 50-100% decrease; 3− = >100% decrease)
O=C1O[C@H]([C@@H](O)CO)C(O)=C1O [L-Ascorbic acid] | 0 |  | 
C[C@@H](N)[C@H]1CC[C@H](C(=O)Nc2ccncc2)CC1.Cl.Cl.O [Y27632, R-(+)-trans-4-(1-aminoethyl)-N-(4-Pyridyl)cyclohexanecarboxamide dihydrochloride monohydrate] |  |  | Activity (plating efficiency compared with control after 4 days culture) (human colon crypts): 1+ (key: 0 = no change; 1+ = <50% increase; 2+ = 50-100% increase; 3+ = >100% increase; 1− = 0-50%; 2− = 50-100% decrease; 3− = >100% decrease); Organoid morphology note in Activity column (human colon crypts): cystic
Exendin4: GLP1 analog; a 39 amino acid peptide | 0 |  | 
O=C(O)/C=C(/CCc1ccc(Cl)cc1)c1ccccc1 [PS48] |  | 0 | 
Nc1ncn([C@@H]2O[C@H](CO)[C@@H](O)[C@H]2O)c(=O)n1 [5 Azacytidin] |  | 1− (1− = 0-50%) | 
CCCCC/C=C\C/C=C\C/C=C\C/C=C\CCCC(=O)O [AA, Arachidonic acid] |  |  | Number and size of liver organoids versus basal medium alone (liver organoids): greater number of larger organoids
Oc1ccc(-c2nc(-c3ccc(F)cc3)c(-c3ccncc3)[nH]2)cc1 [SB-202190, 4-[4-(4-Fluorophenyl)-5-(4-pyridinyl)-1H-imidazol-2-yl]phenol] |  |  | Goblet and enteroendocrine cell differentiation [1]: strongly inhibited this differentiation
C[C@H](NC(=O)Cc1cc(F)cc(F)c1)C(=O)N[C@H](C(=O)OC(C)(C)C)c1ccccc1 [DAPT] |  |  | Maximal concentration efficiency (liver organoid cultures; titration, hepatocyte marker expression): 10 µM
LIF: growth factor (Millipore) | 0 |  | 
CCCCC[C@H](O)/C=C/[C@H]1[C@H](O)CC(=O)[C@@H]1C/C=C\CCCC(=O)O [PGE2, prostaglandin E2] | 1+ (1+ = <50% increase) |  | Culturing time without growth reduction (liver organoids; 5 fold expansion per week, 5 weeks without PGE2): at least 8 weeks; Number and size of liver organoids versus basal medium alone (liver organoids): greater number of larger organoids
Oc1c2ccccc2c2c3c(cccc13)N=N2 [SP600125] |  | 0 | 
Cc1c[nH]c(-c2cnc(NCCNc3ccc(C#N)cn3)nc2-c2ccc(Cl)cc2Cl)n1 [CHIR99021] |  |  | Wnt agonist activity in the culture media [2]: effective Wnt agonist
O.O.O.O=C(O)c1ncccc1O.O=C(O)c1ncccc1O.[O]=[V] [VO-OHpic trihydrate] |  | 3− (3− = >100% decrease) | 
COc1cccc(-c2cc(=O)c3ccccc3o2)c1N [PD98059] |  | 1− (1− = 0-50%) | 
